The values below come from paper PMC9731865, “Gambogic acid and juglone inhibit RNase P through distinct mechanisms” (The Journal of Biological Chemistry, 2022).

Molecules are shown by their SMILES. Read-outs that look alike come from different tables or passages of the source.

For this test, the target named is T1, A. thaliana PRORP1 (Arabidopsis thaliana, UniProt Q66GI4).
T1 construct: made in house
T1 sequence (Q66GI4 77-572): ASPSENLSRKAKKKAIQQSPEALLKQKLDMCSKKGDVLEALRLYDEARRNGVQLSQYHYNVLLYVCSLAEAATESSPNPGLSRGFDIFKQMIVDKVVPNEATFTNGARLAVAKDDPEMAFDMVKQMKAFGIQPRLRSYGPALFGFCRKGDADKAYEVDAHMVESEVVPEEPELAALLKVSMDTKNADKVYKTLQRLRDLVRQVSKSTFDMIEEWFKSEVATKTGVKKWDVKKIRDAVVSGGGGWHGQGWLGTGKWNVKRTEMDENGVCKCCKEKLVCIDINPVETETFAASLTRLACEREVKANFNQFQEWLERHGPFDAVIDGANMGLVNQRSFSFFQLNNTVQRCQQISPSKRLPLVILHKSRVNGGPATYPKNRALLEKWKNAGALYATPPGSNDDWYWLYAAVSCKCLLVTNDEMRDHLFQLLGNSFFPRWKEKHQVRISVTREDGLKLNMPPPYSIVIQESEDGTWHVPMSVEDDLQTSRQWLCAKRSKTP
Briefly: FP cleavage assay, PRORP1 dose response. Type of test: biochemical. The conditions noted are these: for activity at 6.25 µM: read-out: PRORP1 Activity (%). As for the experimental part:
Compounds gambogic acid (A) and juglone (B) were incubated with enzyme at double the reaction concentration for 30 min prior to the addition of an equal volume of substrate to initiate the reaction. PRORP1 reactions (shown in green) were performed with 0.3 nM PRORP1 and 800 nM pre-tRNA containing 40 nM Fl-pre-tRNA at 25 °C in 30 mM MOPS pH 7.8, 5 mM MgCl2, 100 mM NaCl, 1 mM TCEP, 500 nM (12 μg/ml) yeast tRNA, 5 mM spermidine, 6.65 μg/ml BSA, and 0.01% NP-40. MRPP1/2/3 reactions (shown in red) were performed using 50 nM MRPP3, 500 nM MRPP1/2, 500 nM pre-tRNA containing 40 nM Fl-pre-tRNA at 37 °C in 50 mM MOPS (pH 7.8), 1 mM TCEP, 4.5 mM MgCl2, and 100 mM NaCl. B. subtilis RNase P reactions (shown in blue) were performed using 20 nM RNase P and 500 nM pre-tRNA containing 40 nM Fl-pre-tRNA at 37 °C in 50 mM Tris, pH 7.2, 5 mM MgCl2, 100 mM KCl, 500 nM (12 μg/ml) yeast tRNA, 20 mM dithiothreitol (DTT), 10 mM spermidine, and 0.01% NP-40. Equation 1 was fit to each dataset.
The activity of PRORP1 catalyzed pre-tRNA cleavage was measured by monitoring the fluorescence anisotropy (FA) signal (λex = 485 nm and λem = 535 nm) over time at 25 °C in buffer conditions optimized for a high-throughput format, 30 mM MOPS pH 7.8, 5 mM MgCl2, 100 mM NaCl, 1 mM TCEP, 500 nM (12 μg/ml) yeast tRNA, 5 mM spermidine, 6.65 μg/ml BSA, and 0.01% NP-40. Yeast tRNA^mix (Roche) was used to reduce the number of compounds that inhibit PRORP1 activity by targeting tRNA. Prior to each reaction, pre-tRNA was heated for 3 min at 95 °C to unfold the RNA and refolded in the reaction buffer at room temperature (25 °C) for 30 min. Reactions were performed in black, 96-well plates (Corning Incorporation, #3686) using a TECAN plate-reader (Infinite F500, G-factor = 1.05) at 25 °C, and the FA values recorded. Reactions were initiated with the addition of substrate to enzyme. Experiments were done in the presence of excess substrate. The concentration of enzyme was 0.3 to 5 nM, the concentration of labeled substrate (Fl-pre-tRNA) was 40 nM, and the concentration of pre-tRNA was 120 to 4000 nM. The concentration of Fl-pre-tRNA was held constant in all reactions.
The dose response was measured using the FP assay as described above with varying concentrations of compound. Compounds were incubated with PRORP1 at twice the reaction concentration for 30 min prior to the addition of equal volumes of substrate to initiate the reaction. Experiments were done under multiple turnover conditions (same buffer conditions as the FP assay). […] PRORP1 activity was determined as a function of inhibitor concentration, and Equation 1 was fit to the data to determine the IC50 value. The standard error of the mean (SEM) is reported from the fit.(1) Activity(%)=100/1+([I]/IC50)^n

[1] abbreviates: 6.25 μM of inhibitor, FP cleavage assay.

With `CC(=O)O[C@@H]1C[C@@]2(C)[C@H](c3ccoc3)C[C@H]3O[C@]32[C@]2(C)C(=O)C(O)=C3C(C)(C)C(=O)C=C[C@]3(C)[C@@H]12` [anthothecol], under setting [1], the activity at 6.25 µM worked out at 15.5%. Regarding `O=C(O)C1=CC(=C(c2ccc(O)c(C(=O)O)c2)c2ccc(O)c(C(=O)O)c2)C=CC1=O` [aurintricarboxylic acid], under setting [1], the activity at 6.25 µM worked out at 46.5%. Consider `O=C1C(Cl)=C(Cl)C(=O)C(Cl)=C1Cl` [chloranil], for which the activity at 6.25 µM under setting [1] was 40.2%. Still for that read-out and setting: for `Cc1cc(-c2ccc(/N=N/c3ccc4c(S(=O)(=O)O)cc(S(=O)(=O)O)c(N)c4c3O)c(C)c2)ccc1/N=N/c1ccc2c(S(=O)(=O)O)cc(S(=O)(=O)O)c(N)c2c1O` [evans blue] the value was 20.2%.

`CN(C)c1ccc(C(=C2C=CC(=[N+](C)C)C=C2)c2ccc(N(C)C)cc2)cc1` [gentian violet]: the activity at 6.25 µM under setting [1] was 0%.

On to `COC(=O)/C(C)=C\C[C@@]12OC(C)(C)[C@@H]3C[C@@H](C=C4C(=O)c5c(O)c6c(c(CC=C(C)C)c5O[C@]431)O[C@](C)(CCC=C(C)C)C=C6)C2=O` [methyl gambogate], for which the activity at 6.25 µM was determined as 34.8%.

As to `CC(=O)[O][Hg][c]1ccccc1` [phenylmercuric acetate], the “PRORP1 Activity (%)” value under setting [1] turned out to be 32.2%. For `CC1=CC(=O)c2c(O)cccc2C1=O` [plumbagin], under setting [1], the activity at 6.25 µM is 2.6%.
